Source: patent US11324706B2, “Composition for inhibiting growth of breast cancer stem cells containing phenylacetaldehyde” (JEJU NATIONAL UNIVERSITY INDUSTRY-ACADEMIC COOPERATION …, priority 2016, dated 2022)

Assays:
MCF-7 cells = test: Xenograft tumor model; type: in vivo, NOD-SCID (BALB/cSIc (nu/nu)) female nude mice
Procedure: FIGS. 3A, 3B and 3C show effects of PAA on tumor growth in xenograft tumor models. 3 million cells were injected into breast fat pads of NOD-SCID female nude mice;
The dose of used drug is 10 mg/kg. 9 weeks later, the image was captured with Odyssey® image (LICOR, Pearl image system, USA). Using an IRDye 800 CW optical probe (2DG), a high grade of tumor was used to detect breast tumors at a channel of 800 nm and was represented by pseudo-color;
A tumor growth curve was monitored during the test period;
Tumor volume was measured after initiation of treatment. * means p<0.05, as compared to control group. A representative image was captured at the end of 9 weeks of treatment. Results are shown as a vehicle-treated control group, a PAA-treated mouse and a Dox-treated mouse;
24 NOD-SCID (BALB/cSIc (nu/nu)) female nude mice in total were divided into four groups producing breast cancer cells. Six mice as a negative control group were not subjected to chemotherapy. However, the volumes of tumors of control group mice were measured every three days using the Equation of (width^2×length)/2 (FIG. 3). PAA was administered at the optimal dose of 10 to 50 mg/kg to six other nude mice via breast fat pad injection. In addition, doxorubicin (Dox) was administered daily in a low dose of 10 mg/kg to other six nude mice as a positive control group via breast fat pad injection. The last group was used as a non-tumor group without treatment.

MDA-MB-231 cells = test: Scratch migration assay; type: cell-based, human
Procedure: Scratch curing of MDA-MB-231 cells was imaged at […] with or without PAA treatment;
MDA-MB-231 cells were seeded on a 6-well plate to grow cells until confluence reached 90%. Scratch was created on the cell layer using a sterilized white micro-pipette tip. After washing with DMEM medium, breast cancer cells were treated with PAA or DMSO. 16 hours later, the scratch region was imaged with a 10× optical microscope.

[1] = test system: ALDH-positive cell populations of MDA-MB-231 cells; test: ALDEFLUOR assay; type: cell-based, human; conditions: MDA-MB-231, PAA 0.1 mM
Procedure: MDA-MB-231 cells were treated with PAA (0.1 mM) or DMSO, and then subjected to ALDEFLUOR assay and FACS analysis. A top panel represents, as a negative control group, an ALDH-positive cell treated with an ALDH inhibitor, DEAB, and a bottom panel represents an ALDH-positive cell not treated with DEAB. An ALDH-positive population was represented by a box;
An ALDEFLUOR assay system provides a novel approach regarding identification, evaluation and separation of CSCs based on activity of aldehyde dehydrogenase (ALDH). BODIPY-aminoacetaldehyde was added as an active reagent to breast cancer cells and converted into fluorescent BODIPY-aminoacetate by aldehyde dehydrogenase (ALDH). An ALDH inhibitor, i.e., diethylaminobenzaldehyde (DEAB), was used as a negative control group. MCF-7 cells were treated with 200 μM of PAA for 24 hours, and the rate of ALDH-positive cells was analyzed by ALDEFLUOR assay. ALDH positive and negative cells were classified by flow cytometry (Accuri C6, BD, San Diego, Calif., USA).

[2] = test system: MDA-MB-231 cell-derived mammospheres; test: Mammosphere formation, MDA-MB-231-derived; type: cell-based, human; conditions: PAA 0.05 and 0.1 mM, 7 days
Procedure: The mammospheres were cultured together with PAA (0.05 and 0.1 mM) or DMSO. MCF-7 and MDA-MBB-231 cells were treated with PAA and DMSO during the culture period of 7 days.
Human breast cancer cells, i.e., MCF-7 and MDA-MB-231, were commercially obtained from American Type Culture Collection (ATCC; Manassas, Va., USA). MCF-7 and MDA-MB-231 cells were cultured in Dulbecco's modified essential medium (DMEM; Hyclone, Logan, Utah, USA) containing 10% fetal bovine serum (FBS; Hyclone), 100 U/mL of penicillin, and 100 μg/mL of streptomycin (Hyclone). The MCF-7 and MDA-MB-231 cells were maintained at 37° C. in a 5% CO2-containing humidified incubator. The cells were plated at a density of 1×10^6 on a 10 cm petri dish. […]
At 7 days of culture, the cell culture plate was disposed on a scanner (Epson Perfection V700 PHOTO, Epson Korea, Co, Seoul, Korea) to obtain an 8 bit gray scale image of mammospheres. […] The background signal of the image was negated using a critical algorithm and the selected image was automatically counted. Regarding the mammosphere formation analysis, formation efficiency of mammospheres (MFE, %) was determined in accordance with the number of mammospheres per well/the total number of cells plated per well×100.

Cancer stem cells = test: Formation of CSCs under PAA steam (scent); type: cell-based; conditions: PAA steam (1 mM), 7 days
Procedure: Cancer stem cells were cultured in the presence of PAA steam (1 mM) and vehicle (methanol) for 7 days.
Then, formation of CSCs was analyzed by emission of PAA scent (FIG. 4C). As a result, PAA inhibited formation of CSCs. Volatile materials, i.e., PAA and phenylethanol, which are the most important for roses and tomatoes were derived from phenylalanine, as shown in FIG. 5A (FIG. 5A). In order to investigate whether or not phenylalanine-derived volatile materials, i.e., PAA and phenylethanol, and structural analogs (2- and 3-phenylpropionaldehydes) can inhibit formation of tumorspheres, these volatile materials were exposed to MCF-7.

O=CCc1ccccc1 [PAA, phenylacetaldehyde]
tumor volume (MCF-7 cells; compared with Doxorubicin positive control group (10 mg/kg)): less than that of Doxorubicin | tumor weight (MCF-7 cells; compared with control group not treated with PAA): less than control group | tumor volume (MCF-7 cells; compared with control group not treated with PAA, breast fat pad injection): less than that of a control group | migration of MDA-MB-231 cells (MDA-MB-231 cells): concentration-dependently inhibited | proportion of ALDH-positive breast cancer cells [1]: 0.1% | number of primary mammospheres derived from MDA-MB-231 cells [2]: reduced | formation of CSCs by emission of PAA scent (Cancer stem cells): inhibited
